{"source": "patent US11446287B2", "about": "“Compounds and methods for EP300 or CBP modulation and indications therefor” (Opna Immuno-Oncology SA, priority 2019, dated 2022)", "data": [{"molecular_target": "T1, Recombinant human BRD4 containing dual bromodomains (BRD4-BD12 (1-477)) (Homo sapiens, UniProt O60885)", "T1 construct": "Recombinant human BRD4 containing dual bromodomains (BRD4-BD12 (1-477)); made in house; host or cells: E. coli BL21-CodonPlus (DE3), modified pET vector", "experiment": "BRD4 Alphascreen binding assay", "summary_of_the_method": "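AlphaScreen proximity between Ni-chelate-bound BRD4-BD12 (1-477) and streptavidin-captured H4 K5/K8/K12/K16-acetyl peptide measured after 1 h room-temperature compound incubation and 30 min with 7.5 μg/ml beads. Buffer: 50 mM HEPES pH 7.5, 50 mM NaCl, 0.01% BSA, 0.01% Triton X-100; data plate-normalized and four-parameter fit for IC50.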", "units": {"IC50": "µM"}, "values": [{"molecule": "CCOc1cc(C(=O)O)cc(OCC)c1-n1cc(-c2cnn(CCC#N)c2)c2ncc(-c3c(C)noc3C)cc21", "note": "[P-0266, 4-(3-(1-(2-cyanoethyl)-1H-pyrazol-4-yl)-6-(3,5-dimethylisoxazol-4-yl)-1H-pyrrolo[3,2-b]pyridin-1-yl)-3,5-diethoxybenzoic acid]", "IC50": "1 to 8"}, {"molecule": "CCOc1cc(C(=O)O)cc(OCC)c1-n1cc(-c2cnn(CC(=O)N(C)C)c2)c2ncc(-c3c(C)noc3C)cc21", "note": "[P-0267, 4-(3-(1-(2-(dimethylamino)-2-oxoethyl)-1H-pyrazol-4-yl)-6-(3,5-dimethylisoxazol-4-yl)-1H-pyrrolo[3,2-b]pyridin-1-yl)-3,5-diethoxybenzoic acid]", "IC50": "1 to 8"}, {"molecule": "Cc1noc(C)c1-c1cnc2c(c1)c(-c1cc(C(=O)O)ccc1OC(F)(F)F)cn2-c1ccc(F)cc1F", "note": "[P-0268, 3-(1-(2,4-difluorophenyl)-5-(3,5-dimethylisoxazol-4-yl)-1H-pyrrolo[2,3-b]pyridin-3-yl)-4-(trifluoromethoxy)benzoic acid]", "IC50": "1 to 8"}, {"molecule": "Cc1noc(C)c1-c1cnc2c(-c3ccc(F)cc3F)cn(-c3c(OC(C)C)cc(C(=O)O)cc3OC(C)C)c2c1", "note": "[P-0269, 4-(3-(2,4-difluorophenyl)-6-(3,5-dimethylisoxazol-4-yl)-1H-pyrrolo[3,2-b]pyridin-1-yl)-3,5-diisopropoxybenzoic acid]", "IC50": "1 to 8"}, {"molecule": "CCOc1cc(C(=O)O)cc(OCC)c1-n1cc(CC2CCC2)c2ncc(-n3c(C)nnc3C)cc21", "note": "[P-0270, 4-(3-(cyclobutylmethyl)-6-(3,5-dimethyl-4H-1,2,4-triazol-4-yl)-1H-pyrrolo[3,2-b]pyridin-1-yl)-3,5-diethoxybenzoic acid]", "IC50": "8 to 1000"}, {"molecule": "CCOc1cc(C(=O)O)cc(OCC)c1-n1cc(C2CCC(F)(F)CC2)c2ncc(-c3c(C)noc3C)cc21", "note": "[P-0271, 4-(3-(4,4-difluorocyclohexyl)-6-(3,5-dimethylisoxazol-4-yl)-1H-pyrrolo[3,2-b]pyridin-1-yl)-3,5-diethoxybenzoic acid]", "IC50": "8 to 1000"}, {"molecule": "Cc1noc(C)c1-c1cnc2c(c1)c(-c1cnn(CC(=O)O)c1)cn2-c1ncccc1C#CC1CC1", "note": "[P-0272, 2-(4-(1-(3-(cyclopropylethynyl)pyridin-2-yl)-5-(3,5-dimethylisoxazol-4-yl)-1H-pyrrolo[2,3-b]pyridin-3-yl)-1H-pyrazol-1-yl)acetic acid]", "IC50": "8 to 1000"}, {"molecule": "Cc1noc(C)c1-c1cnc2c(c1)c(-c1ccc(C(=O)O)cc1OC(F)F)cn2-c1ccccc1", "note": "[P-0273, 3-(difluoromethoxy)-4-(5-(3,5-dimethylisoxazol-4-yl)-1-phenyl-1H-pyrrolo[2,3-b]pyridin-3-yl)benzoic acid]", "IC50": "1 to 8"}, {"molecule": "Cc1noc(C)c1-c1cnc2c(-c3ccccc3)cn(-c3cc(C(=O)O)ccc3OC(F)(F)F)c2c1", "note": "[P-0274, 3-(6-(3,5-dimethylisoxazol-4-yl)-3-phenyl-1H-pyrrolo[3,2-b]pyridin-1-yl)-4-(trifluoromethoxy)benzoic acid]", "IC50": "1 to 8"}, {"molecule": "Cc1noc(C)c1-c1cnc2c(c1)c(-c1ccc(C(=O)O)cc1OC(C)C)cn2-c1ccccc1", "note": "[P-0275, 4-(5-(3,5-dimethylisoxazol-4-yl)-1-phenyl-1H-pyrrolo[2,3-b]pyridin-3-yl)-3-isopropoxybenzoic acid]", "IC50": "1 to 8"}, {"molecule": "Cc1noc(C)c1-c1cnc2c(c1)c(-c1ccc(C(=O)O)cc1OC1CCC1)cn2-c1ccccc1", "note": "[P-0276, 3-cyclobutoxy-4-(5-(3,5-dimethylisoxazol-4-yl)-1-phenyl-1H-pyrrolo[2,3-b]pyridin-3-yl)benzoic acid]", "IC50": "1 to 8"}, {"molecule": "Cc1noc(C)c1-c1cnc2c(c1)c(-c1ccc(C(=O)O)cc1OCC(F)F)cn2-c1ccccc1", "note": "[P-0277, 3-(2,2-difluoroethoxy)-4-(5-(3,5-dimethylisoxazol-4-yl)-1-phenyl-1H-pyrrolo[2,3-b]pyridin-3-yl)benzoic acid]", "IC50": "1 to 8"}, {"molecule": "Cc1noc(C)c1-c1cnc2c(c1)c(-c1ccc(C(=O)O)cc1OCC(F)(F)F)cn2-c1ccccc1", "note": "[P-0278, 4-(5-(3,5-dimethylisoxazol-4-yl)-1-phenyl-1H-pyrrolo[2,3-b]pyridin-3-yl)-3-(2,2,2-trifluoroethoxy)benzoic acid]", "IC50": "1 to 8"}, {"molecule": "Cc1noc(C)c1-c1cnc2c(c1)c(-c1ccc(C(=O)O)cc1OC(F)(F)F)cn2-c1ccc(F)cc1", "note": "[P-0279, 4-(5-(3,5-dimethylisoxazol-4-yl)-1-(4-fluorophenyl)-1H-pyrrolo[2,3-b]pyridin-3-yl)-3-(trifluoromethoxy)benzoic acid]", "IC50": "1 to 8"}, {"molecule": "Cc1noc(C)c1-c1cnc2c(c1)c(-c1cnn(CC(=O)O)c1)cn2C(C1CC1)C1CC1", "note": "[P-0280, 2-(4-(1-(dicyclopropylmethyl)-5-(3,5-dimethylisoxazol-4-yl)-1H-pyrrolo[2,3-b]pyridin-3-yl)-1H-pyrazol-1-yl)acetic acid]", "IC50": "8 to 1000"}, {"molecule": "Cc1noc(C)c1-c1cnc2c(c1)c(-c1ccc(C(=O)O)cc1OC(F)(F)F)cn2-c1cnc(N2CCC2)nc1", "note": "[P-0281, 4-(1-(2-(azetidin-1-yl)pyrimidin-5-yl)-5-(3,5-dimethylisoxazol-4-yl)-1H-pyrrolo[2,3-b]pyridin-3-yl)-3-(trifluoromethoxy)benzoic acid]", "IC50": "1 to 8"}, {"molecule": "Cc1noc(C)c1-c1cnc2c(c1)c(-c1ccc(C(=O)O)cc1OC(F)(F)F)cn2-c1ccc(S(C)(=O)=O)cc1", "note": "[P-0282, 4-(5-(3,5-dimethylisoxazol-4-yl)-1-(4-(methylsulfonyl)phenyl)-1H-pyrrolo[2,3-b]pyridin-3-yl)-3-(trifluoromethoxy)benzoic acid]", "IC50": "0.0001 to 1"}, {"molecule": "Cc1noc(C)c1-c1cnc2c(c1)c(-c1c(Cl)cc(C(=O)O)cc1OC(C)C)cn2C(C1CC1)C1CC1", "note": "[P-0283, 3-chloro-4-(1-(dicyclopropylmethyl)-5-(3,5-dimethylisoxazol-4-yl)-1H-pyrrolo[2,3-b]pyridin-3-yl)-5-isopropoxybenzoic acid]", "IC50": "1 to 8"}, {"molecule": "Cc1noc(C)c1-c1cnc2c(c1)c(-c1cc(C(=O)O)ccc1OC(F)(F)F)cn2C(C1CC1)C1CC1", "note": "[P-0284, 3-(1-(dicyclopropylmethyl)-5-(3,5-dimethylisoxazol-4-yl)-1H-pyrrolo[2,3-b]pyridin-3-yl)-4-(trifluoromethoxy)benzoic acid]", "IC50": "8 to 1000"}, {"molecule": "Cc1noc(C)c1-c1cnc2c(c1)c(-c1ccc(C(=O)O)cc1OC(F)(F)F)cn2[C@H]1CCOC1", "note": "[P-0285, (S)-4-(5-(3,5-dimethylisoxazol-4-yl)-1-(tetrahydrofuran-3-yl)-1H-pyrrolo[2,3-b]pyridin-3-yl)-3-(trifluoromethoxy)benzoic acid]", "IC50": "8 to 1000"}, {"molecule": "Cc1noc(C)c1-c1cnc2c(c1)c(-c1ccc(C(=O)O)cc1OC(F)(F)F)cn2[C@@H]1CCOC1", "note": "[P-0286, (R)-4-(5-(3,5-dimethylisoxazol-4-yl)-1-(tetrahydrofuran-3-yl)-1H-pyrrolo[2,3-b]pyridin-3-yl)-3-(trifluoromethoxy)benzoic acid]", "IC50": "8 to 1000"}, {"molecule": "CCn1cc(-n2cc(-c3ccc(C(=O)O)cc3OC(F)(F)F)c3cc(-c4c(C)noc4C)cnc32)c(C)n1", "note": "[P-0287, 4-(5-(3,5-dimethylisoxazol-4-yl)-1-(1-ethyl-3-methyl-1H-pyrazol-4-yl)-1H-pyrrolo[2,3-b]pyridin-3-yl)-3-(trifluoromethoxy)benzoic acid]", "IC50": "1 to 8"}, {"molecule": "Cc1nn(C(F)F)cc1-n1cc(-c2ccc(C(=O)O)cc2OC(F)(F)F)c2cc(-c3c(C)noc3C)cnc21", "note": "[P-0288, 4-(1-(1-(difluoromethyl)-3-methyl-1H-pyrazol-4-yl)-5-(3,5-dimethylisoxazol-4-yl)-1H-pyrrolo[2,3-b]pyridin-3-yl)-3-(trifluoromethoxy)benzoic acid]", "IC50": "1 to 8"}, {"molecule": "Cc1noc(C)c1-c1cnc2c(c1)c(-c1ccc(C(=O)O)cc1OC(F)(F)F)cn2-c1cnn(C(F)F)c1C", "note": "[P-0289, 4-(1-(1-(difluoromethyl)-5-methyl-1H-pyrazol-4-yl)-5-(3,5-dimethylisoxazol-4-yl)-1H-pyrrolo[2,3-b]pyridin-3-yl)-3-(trifluoromethoxy)benzoic acid]", "IC50": "1 to 8"}, {"molecule": "Cc1noc(C)c1-c1cnc2c(c1)c(-c1ccc(C(=O)O)cc1OC(F)(F)F)cn2C1CCNCC1", "note": "[P-0290, 4-(5-(3,5-dimethylisoxazol-4-yl)-1-(piperidin-4-yl)-1H-pyrrolo[2,3-b]pyridin-3-yl)-3-(trifluoromethoxy)benzoic acid]", "IC50": "8 to 1000"}, {"molecule": "CC(=O)N1CCC(n2cc(-c3ccc(C(=O)O)cc3OC(F)(F)F)c3cc(-c4c(C)noc4C)cnc32)CC1", "note": "[P-0291, 4-(1-(1-acetylpiperidin-4-yl)-5-(3,5-dimethylisoxazol-4-yl)-1H-pyrrolo[2,3-b]pyridin-3-yl)-3-(trifluoromethoxy)benzoic acid]", "IC50": "8 to 1000"}, {"molecule": "Cc1noc(C)c1-c1cnc2c(c1)c(-c1ccc(C(=O)O)cc1OC(F)(F)F)cn2C1CCN(S(C)(=O)=O)CC1", "note": "[P-0292, 4-(5-(3,5-dimethylisoxazol-4-yl)-1-(1-(methylsulfonyl)piperidin-4-yl)-1H-pyrrolo[2,3-b]pyridin-3-yl)-3-(trifluoromethoxy)benzoic acid]", "IC50": "1 to 8"}, {"molecule": "Cc1noc(C)c1-c1cnc2c(c1)c(-c1ccc(C(=O)O)cc1OC(F)(F)F)cn2-c1ccncc1F", "note": "[P-0293, 4-(5-(3,5-dimethylisoxazol-4-yl)-1-(3-fluoropyridin-4-yl)-1H-pyrrolo[2,3-b]pyridin-3-yl)-3-(trifluoromethoxy)benzoic acid]", "IC50": "1 to 8"}, {"molecule": "Cc1noc(C)c1-c1cnc2c(c1)c(-c1ccc(C(=O)O)cc1OC(F)(F)F)cn2-c1cnn(CC(C)(C)O)c1", "note": "[P-0294, 4-(5-(3,5-dimethylisoxazol-4-yl)-1-(1-(2-hydroxy-2-methylpropyl)-1H-pyrazol-4-yl)-1H-pyrrolo[2,3-b]pyridin-3-yl)-3-(trifluoromethoxy)benzoic acid]", "IC50": "0.0001 to 1"}, {"molecule": "CCOc1cc(C(=O)O)ncc1-c1cn(-c2ccc(F)cc2F)c2ncc(-c3c(C)noc3C)cc12", "note": "[P-0295, 5-(1-(2,4-difluorophenyl)-5-(3,5-dimethylisoxazol-4-yl)-1H-pyrrolo[2,3-b]pyridin-3-yl)-4-ethoxypicolinic acid]", "IC50": "1 to 8"}]}]}
